The text below walks through data of ChEMBL document CHEMBL2413048, “3,4-Dihydroxy- and 3,4-methylenedioxy- phenanthrene-type alkaloids with high selectivity for D2 dopamine receptor” (Bioorg Med Chem Lett, 2013).

The structures appear in SMILES notation. Activity calls are given as the source filed them. The calls are words filed in the database; no cut-off is given here.

For one test, the target named is D(2) dopamine receptor (Rattus norvegicus, UniProt P61169). The test can be described thus: (§1) Displacement of [3H]-raclopride from D2 receptor of Wistar rat striatal membranes after 1 hr by liquid scintillation counting. Format: cell membranes, Membrane.
For the next test, the species on record is Rattus norvegicus. The test can be described thus: Selectivity ratio of Ki for D1 receptor of Wistar rat striatal membranes to Ki for D2 receptor of Wistar rat striatal membranes. Format: cell membranes. Particulars: Membrane.
For another test, the target named is D(1A) dopamine receptor (Rattus norvegicus, UniProt P18901). The test can be described thus: Displacement of [3H]-SCH23390 from D1 receptor of Wistar rat striatal membranes after 1 hr by liquid scintillation counting. Format: cell membranes, Membrane.
Test [1] concerns the target D(2) dopamine receptor (Rattus norvegicus) (UniProt P61169). The test is described as §1. Format: cell membranes. Particulars: Membrane.

Sequence of D(1A) dopamine receptor (P18901 whole entry): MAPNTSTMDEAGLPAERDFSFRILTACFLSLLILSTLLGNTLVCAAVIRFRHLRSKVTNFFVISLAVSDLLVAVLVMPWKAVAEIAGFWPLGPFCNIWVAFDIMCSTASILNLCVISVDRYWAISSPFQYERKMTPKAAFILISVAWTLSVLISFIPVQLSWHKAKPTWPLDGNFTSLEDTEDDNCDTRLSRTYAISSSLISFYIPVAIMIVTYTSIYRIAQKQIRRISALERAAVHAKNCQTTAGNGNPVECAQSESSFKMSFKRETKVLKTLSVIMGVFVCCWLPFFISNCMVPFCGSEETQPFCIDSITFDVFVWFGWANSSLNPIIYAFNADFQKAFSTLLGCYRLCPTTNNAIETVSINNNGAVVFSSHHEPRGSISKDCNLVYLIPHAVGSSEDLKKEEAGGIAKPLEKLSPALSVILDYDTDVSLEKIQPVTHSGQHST
Sequence of D(2) dopamine receptor (P61169 whole entry): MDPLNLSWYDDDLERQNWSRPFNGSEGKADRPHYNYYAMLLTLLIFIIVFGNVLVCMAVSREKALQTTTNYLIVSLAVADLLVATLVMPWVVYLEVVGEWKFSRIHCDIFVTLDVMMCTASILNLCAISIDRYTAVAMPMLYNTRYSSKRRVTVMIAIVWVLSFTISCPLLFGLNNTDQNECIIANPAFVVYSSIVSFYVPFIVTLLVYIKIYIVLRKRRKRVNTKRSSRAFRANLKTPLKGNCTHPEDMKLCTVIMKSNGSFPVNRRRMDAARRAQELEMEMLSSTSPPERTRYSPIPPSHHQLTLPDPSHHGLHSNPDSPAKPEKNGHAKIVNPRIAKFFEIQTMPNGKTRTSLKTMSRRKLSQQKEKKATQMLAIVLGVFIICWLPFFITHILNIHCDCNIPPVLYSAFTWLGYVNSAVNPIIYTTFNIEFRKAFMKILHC
Sequence of D(2) dopamine receptor (Rattus norvegicus) (P61169 whole entry): as above

As to `COc1cc(CCN(C)C)c2ccc3ccccc3c2c1OC`, the Ki at D(2) dopamine receptor (read-out: Ki) was 323 nM; at D(2) dopamine receptor (read-out: pKi (converted)), 321 nM; on D(1A) dopamine receptor (read-out: Ki) it was 2940 nM; at D(1A) dopamine receptor (read-out: pKi (converted)) it was 2920 nM. For the same compound, in the test filed under Rattus norvegicus, the Ratio Ki came out at 9.1.

Take `C[N+]1(C)CCc2cc3c(c4c2C1Cc1ccccc1-4)OCO3` (racemic): in test [1], the outcome was inactive.

On to `C[N+](C)(C)CCc1cc2c(c3c1ccc1ccccc13)OCO2`, for which the result in test [1] was inactive.

Regarding `CN(C)CCc1cc2c(c3c1ccc1ccccc13)OCO2`, the Ki on D(2) dopamine receptor (read-out: Ki) was 66 nM; at D(2) dopamine receptor (read-out: pKi (converted)), 64.7 nM; at D(1A) dopamine receptor (read-out: Ki), 6350 nM; at D(1A) dopamine receptor (read-out: pKi (converted)), 4140 nM. In addition, the Ratio Ki in the test filed under Rattus norvegicus amounted to 96.

Turning to `COc1cc(CC[N+](C)(C)C)c2ccc3ccccc3c2c1OC`, the result in test [1] was inactive.

As to `COc1cc2c3c(c1OC)-c1ccccc1CC3N(C)CC2` (racemic) [(+/-)-NUCIFERINE], the Ki at D(2) dopamine receptor (read-out: Ki) was 209 nM; at D(2) dopamine receptor (read-out: pKi (converted)), 173 nM; at D(1A) dopamine receptor (read-out: Ki), 630 nM; at D(1A) dopamine receptor (read-out: pKi (converted)), 587 nM.

`COc1cc2c3c(c1OC)-c1ccccc1CC3[N+](C)(C)CC2` (configuration not stated): the outcome in test [1] was inactive.

In the case of `CN1CCc2cc(O)c(O)c3c2C1Cc1ccccc1-3` (configuration not stated), the Ki was 45 nM at D(2) dopamine receptor (read-out: Ki), 38.6 nM at D(2) dopamine receptor (read-out: pKi (converted)), 401 nM at D(1A) dopamine receptor (read-out: Ki) and 397 nM at D(1A) dopamine receptor (read-out: pKi (converted)). The Ratio Ki in the test listed under Rattus norvegicus was 8.9.

As to `CN(C)CCc1cc(O)c(O)c2c1ccc1ccccc12`, the Ki on D(2) dopamine receptor (read-out: Ki) was 49 nM; at D(2) dopamine receptor (read-out: pKi (converted)), 38.5 nM; on D(1A) dopamine receptor (read-out: Ki), 7700 nM; at D(1A) dopamine receptor (read-out: pKi (converted)), 6190 nM. In addition, in the test filed under Rattus norvegicus, the Ratio Ki amounted to 157.

For the compound `CN1CCc2cc3c(c4c2C1Cc1ccccc1-4)OCO3` (racemic) [ROEMERINE], the Ki was 84 nM at D(2) dopamine receptor (read-out: Ki), 377 nM on D(1A) dopamine receptor (read-out: Ki) and 324 nM on D(1A) dopamine receptor (read-out: pKi (converted)). For the same compound, the Ratio Ki in the test filed under Rattus norvegicus worked out at 4.4.
